Where “and” joins values, the source holds several entries; their conditions need not be identical. Equal entries are not always repeated. Where two headings read alike, the source gives them in different places. One block for each compound: values may come before it.
How the values were obtained:
spinach Rubisco [1] = target: T1, spinach Rubisco (Spinacia oleracea, UniProt P00875); test: Radiolabelled [3H]-(±)-ABA binding assay (saturation and competition); design: Commercially available Rubisco from spinach (Sigma-Aldrich); catalogue # R8000; purchased Sigma-Aldrich R8000; conditions: 25 nM [3H]-(±)-ABA
Experimental: A fresh aliquot of this Rubisco was subsequently dissolved in binding buffer (50 mM bicine, 15 mM MgCl2, 20 mM NaCl, pH 7.9) and placed on ice. The total volume for each assay sample was 30 μL. Protein solution (30 μg protein) was mixed with [^3H]-(±)-ABA (specific activity 37 Ci mmol^-1 radiolabelled: non-radiolabelled ratio 1.8:1) at the indicated concentrations in the presence and absence of 500 μM (+)-ABA, incubated at RT for 30 minutes. Samples (15 μL) from each reaction were transferred into SPN columns (G-biosciences), to which 100 μL of cold OrgoSol^TM buffer (chilled at -20°C) was added. The columns were spun at 10,000 x g for 10 s and the wash repeated once. The matrix of each SPN column was then removed and placed in scintillation vials containing Aqasol^TM scintillation fluid and soaked for at least 24 hours prior to counting radioactivity using a Beckman Coulter Multi-Purpose Scintillation Counter. Control samples not containing the protein, but treated with [^3H]-(±)-ABA, were also prepared and values subtracted from experimental samples. Signal corresponding to specific [^3H]-(±)-ABA binding was calculated from the difference between samples with [^3H]-(±)-ABA and those containing 1000-fold excess of non-radiolabelled (+)-ABA. Each sample was replicated 5–10 times and readings averaged. Competition was performed as described above, with the concentration of [^3H]-(±)-ABA at 25 nM in all samples, and non-radiolabeled (+)-ABA added at the indicated concentrations. The same procedure was applied using non-radiolabeled (-)-ABA, PA (phaseic acid), and trans-ABA. Values obtained for the same experiment washed with a 10,000 fold excess of unlabelled (±)-ABA were subtracted to account for any non-specific binding.

non-activated Rubisco [2] = target: non-activated Rubisco; design: method as in PMID 6417133; conditions: non-activated Rubisco ref 13; read-out: KD, radiolabelled binding assay; cited from earlier work
non-activated Rubisco [3] = target: non-activated Rubisco; design: method as in earlier work; conditions: 1 unit / mg ref 49, read-out: Kd by ITC; cited from earlier work
activated Rubisco = conditions: read-out: Km, activated Rubisco-RuBP complex; activated Rubisco ref 13; cited from earlier work
spinach Rubisco [4] = target: T1, spinach Rubisco; test: Isothermal titration calorimetry; conditions: for stoichiometry (n) by ITC: 20°C, Independent binding model
ABA-receptor (PYL5) = conditions: PYL5 ref 48; read-out: Kd by ITC; cited from earlier work
spinach Rubisco [5] = target: T1, spinach Rubisco; test: Rubisco activation (carbamylation), initial rate analysis with non-activated enzyme; type: biochemical; design: Commercially available Rubisco from spinach (Sigma-Aldrich); catalogue # R8000; purchased Sigma-Aldrich R8000
Experimental: Commercially available Rubisco from spinach (Sigma-Aldrich; catalogue # R8000; S1 Fig; specific activity 0.05 units / mg) was dissolved in a buffer containing 15 mM MgCl2 and 25 mM NaHCO3 at pH 8.0 for activation. Each assay (total volume, 1.0 mL) contained 50 mM Bicine (pH 8.0), 15 mM MgCl2, 10 mM NaCl, 5 mm DTT, 5 mM phosphocreatine, 5 mM ATP, 5 mM phosphoenolpyruvate, and 25 mM NaHCO3. This mixture was prepared before each set of experiments. Five minutes before initiating the reaction with the addition of activated Rubisco, the following were added: RuBP at the indicated concentrations), 0.4 mM NADH, 20 units mL-^-1 of glyceraldehyde-3-phosphate dehydrogenase, 20 units mL-^-1 of 3-phosphoglycerate kinase, and 2 units mL^-1 of creatine phosphokinase. Following the addition of activated Rubisco to a final concentration of 0.3 mg mL^-1, the NADH concentration was measured spectrophotometrically (λ = 340 nm) at 5 s intervals for 5 min. Absorbance values were converted to NADH concentrations using an extinction coefficient of 6.22 mM^-1. Reaction rates were evaluated from the slope of absorbance vs. time curves and plotted against concentration of RuBP. […] The non-activated Rubisco was then pre-incubated on ice for at least 10 minutes with or without the indicated concentrations of (+)-ABA, and the reactions initiated and monitored as described above. […]

Compound: CC1=CC(=O)CC(C)(C)[C@]1(O)/C=C/C(C)=C\C(=O)O [(-)-ABA]
Competition: displacement of [3H]-(±)-ABA by non-radiolabeled compound (spinach Rubisco [1]): equally effective as competitors

Competition: displacement of [3H]-(±)-ABA by non-radiolabeled compound (spinach Rubisco [1]): ineffective as competitors
Compound: CC(=C/C(=O)O)/C=C/[C@]1(O)[C@@]2(C)CO[C@]1(C)CC(=O)C2 [PA, phaseic acid]

Compound: O=C(COP(=O)(O)O)[C@H](O)[C@H](O)COP(=O)(O)O [RuBP, ribulose-1,5-bisphosphate]
Kd (non-activated Rubisco [2]): 21 nM | Kd (non-activated Rubisco [3]): 300 nM | Km (activated Rubisco): 21 µM | Kd (spinach Rubisco [4]): 31400 nM | stoichiometry (n) by ITC (spinach Rubisco [4]): 2.5

Compound: CC1=CC(=O)CC(C)(C)[C@@]1(O)/C=C/C(C)=C/C(=O)O [trans-(+)-ABA]
Competition: displacement of [3H]-(±)-ABA by non-radiolabeled compound (spinach Rubisco [1]): ineffective as competitors

Compound: Abscisic acid [(+)-ABA]
Kd (ABA-receptor (PYL5)): 1200 nM | stoichiometry (n) by ITC (spinach Rubisco [4]): 19.9 and 19 | Competition: displacement of [3H]-(±)-ABA by non-radiolabeled compound (spinach Rubisco [1]): equally effective as competitors | effect on initial rate (activation) (spinach Rubisco [5]; 100-250 μM (+)-ABA, 7 mM NaHCO3, S3 Fig, no effect on equilibrium rate (catalysis)): inhibitory effect | potency on Rubisco activation versus Rubisco catalysis (spinach Rubisco [5]; ratio of Ki values): more than 10 fold
